Measurements as given in paper PMC4900891 (Biochemistry, 2016).
Positions count from the first letter of the chain named. pEC50: −log10 of the molar value. “And” between values parts separate entries of the source, which are not always exact repeats. Equal entries are not always repeated. Square brackets hold non-standard residues; d marks the D form. Peptide text beside a SMILES is read from it. pY = N[C@@H](Cc1ccc(OP(=O)(O)O)cc1)C(=O)O

Assays:
SHP2^S502P [1] = molecular target: T1, SHP2^S502P (Homo sapiens, UniProt Q06124, S502P); test: Basal DiFMUP dephosphorylation kinetics, S502P; format: biochemical; conditions: substrate DiFMUP, basal (no peptide); 0.025 nM enzyme, Hepes pH 7.2
T1 sequence (Q06124 1-525 S502P): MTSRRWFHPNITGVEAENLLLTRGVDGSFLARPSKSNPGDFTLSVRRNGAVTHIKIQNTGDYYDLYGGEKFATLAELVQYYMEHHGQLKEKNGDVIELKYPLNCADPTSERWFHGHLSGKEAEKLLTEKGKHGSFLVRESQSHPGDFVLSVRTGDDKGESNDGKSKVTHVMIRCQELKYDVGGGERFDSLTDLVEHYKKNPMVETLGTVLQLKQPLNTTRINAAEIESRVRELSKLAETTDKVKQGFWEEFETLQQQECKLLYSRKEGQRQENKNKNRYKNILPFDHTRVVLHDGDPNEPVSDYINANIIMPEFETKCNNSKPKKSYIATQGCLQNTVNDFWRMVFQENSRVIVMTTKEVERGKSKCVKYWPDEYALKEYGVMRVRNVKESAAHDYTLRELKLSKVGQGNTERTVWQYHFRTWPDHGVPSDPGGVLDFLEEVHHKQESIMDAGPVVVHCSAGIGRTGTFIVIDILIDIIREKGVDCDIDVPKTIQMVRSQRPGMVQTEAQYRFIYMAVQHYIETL

SHP2^PTP = conditions: substrate DiFMUP, basal (no peptide); 0.00625 nM enzyme, Hepes pH 7.2
SHP2^E76Q [2] = molecular target: T2, SHP2^E76Q (Homo sapiens, UniProt Q06124, E76Q); test: Basal DiFMUP dephosphorylation kinetics, E76Q; format: biochemical; conditions: substrate DiFMUP, basal (no peptide); 0.05 nM enzyme, Hepes pH 7.2
T2 sequence (Q06124 1-525 E76Q): T1 sequence (Q06124 1-525 S502P) with E76Q, P502S

SHP2^WT [3] = molecular target: T3, SHP2^WT (Homo sapiens, UniProt Q06124); conditions: substrate DiFMUP, basal (no peptide); 2.5 nM enzyme, Hepes pH 7.2
T3 sequence (Q06124 1-525): T1 sequence (Q06124 1-525 S502P) with P502S

SHP2^WT [4] = molecular target: T3, SHP2^WT; test: Phosphopeptide activation of SHP2; format: biochemical
SHP2^E76Q [5] = molecular target: T2, SHP2^E76Q; test: Phosphopeptide activation of SHP2; format: biochemical
SHP2^S502P [6] = molecular target: T1, SHP2^S502P; test: Phosphopeptide activation of SHP2; format: biochemical
SHP2 (both SH2 domains) = conditions: cited from earlier work

Question: For `Cc1cc(=O)oc2c(F)c(OP(=O)(O)O)c(F)cc12` [DiFMUP, 6,8-Difluoro-4-Methylumbelliferyl Phosphate], which kcat/KM (SHP2^S502P [1]) is on record?
Answer: 77000 M⁻¹ s⁻¹ and 76500 M⁻¹ s⁻¹

Question: What about the kcat/KM (SHP2^PTP) of the same compound?
Answer: 298000 M⁻¹ s⁻¹

Question: And the kcat/KM (SHP2^E76Q [2])?
Answer: 71000 M⁻¹ s⁻¹ and 71200 M⁻¹ s⁻¹

Question: What about the kcat/KM (SHP2^WT [3]) of the same compound?
Answer: 2100 M⁻¹ s⁻¹

Question: With `CC[C@H](C)[C@H](NC(=O)[C@H](Cc1ccc(OP(=O)(O)O)cc1)NC(=O)[C@H](CC(N)=O)NC(=O)[C@H](CC(C)C)NC(=O)[C@@H](N)CO)C(=O)N[C@@H](CC(=O)O)C(=O)N[C@@H](CC(C)C)C(=O)N[C@@H](CC(=O)O)C(=O)N[C@@H](CC(C)C)C(=O)N[C@H](C(=O)N[C@@H](CCCCN)C(=O)O)C(C)C` [PY1172] (H-SLN[pY]IDLDLVK-OH) as the compound, how does the pEC50 (SHP2^WT [4]) read?
Answer: 5.00

Question: And the pEC50 (SHP2^E76Q [5])?
Answer: 6.46

Question: And the pEC50 (SHP2^S502P [6])?
Answer: 6.08

Question: With “SLNY(p)IDLDLVK-dPEG8-LSTY(p)ASINFQK [PY1172-PEG-PY1222]” as the compound, how does the “SH2 domain occupancy and activation” value (SHP2 (both SH2 domains)) read?
Answer: occupies both SH2 domains and induces full activation of the phosphatase

Question: And the extent of activation (SHP2^WT [4]; double-phosphorylated peptide, low-micromolar concentrations)?
Answer: complete activation

Question: What about the “sensitivity to bisphosphorylated peptide” value (SHP2^E76Q [5]; relative to SHP2^WT) of the same compound?
Answer: greatest sensitivity

Question: What about the “sensitivity to bisphosphorylated peptide” value (SHP2^S502P [6]; relative to SHP2^WT) of the same compound?
Answer: greatest sensitivity
